For 49 compounds, IC50 results are on record in ChEMBL document CHEMBL5729561, “Compounds and uses thereof” (2023).

For orientation: IC50 means the concentration needed to halve the response being measured. Higher therefore signals weaker potency.

The structures appear in SMILES notation.

This test can be described thus: On day 0 cells were seeded in 30 μL media into each well of 384-well cell culture plates. The seeding density was 8000 cells/well. On day 1, cells were treated with 30 nL DMSO or 30 nL of 3-fold serially DMSO-diluted compounds (10 points in duplicates with 1 μM as final top dose). Subsequently plates were incubated for 6 hours in a standard tissue culture incubator and equilibrated at room temperature for 15 minutes. Nanoluciferase activity was measured by adding 15 μL of freshly prepared Nano-Glo Luciferase Assay Reagent (Promega N1130), shaking the plates for 10 minutes and reading the bioluminescence using an EnVision reader. The test is classed as cell-based.
For the compound `COc1cc(-c2cn(C)c(=O)c3cnccc23)cc(OC)c1CN1CCC(OCc2cn(CCCCOc3ccc4c(c3)C(=O)N(C3CCC(=O)NC3=O)C4=O)nn2)CC1` (centres undefined), the IC50 result was “in the range around 55 nM”.
For `COc1cc(-c2cn(C)c(=O)c3cnccc23)cc(OC)c1CN(C)CC12CC(NC(=O)CCOCCOCCNc3cccc4c3C(=O)N(C3CCC(=O)NC3=O)C4=O)(C1)C2` (centres undefined) the value was “in the range around 550 nM”; for `COc1cc(-c2cn(C)c(=O)c3cnccc23)cc(OC)c1ON1CC2(CC(NC(=O)CCOCCOc3ccc4c(c3)C(=O)N(C3CCC(=O)NC3=O)C4=O)C2)C1` (centres undefined), “in the range around 550 nM”; for `COc1cc(-c2cn(C)c(=O)c3cnccc23)cc(OC)c1CN1CC[C@@H]1C(=O)NCCCCCCCCNc1cccc2c1C(=O)N(C1CCC(=O)NC1=O)C2=O` (some centres undefined), under 10 nM.
As to `COc1cc(-c2cn(C)c(=O)c3cnccc23)cc(OC)c1CN(C)C1CC2CC1CN2C(=O)CCOCCOc1cccc2c1C(=O)N(C1CCC(=O)NC1=O)C2=O` (centres undefined), the IC50 entry is “in the range around 55 nM”.
For the compound `COc1cc(-c2cn(C)c(=O)c3cnccc23)cc(OC)c1CN(C)C1CCC12CCN(C(=O)CCOCCOc1cccc3c1C(=O)N(C1CCC(=O)NC1=O)C3=O)CC2` (centres undefined), the IC50 result is “in the range around 55 nM”.
As for `COc1cc(-c2cn(C)c(=O)c3cnccc23)cc(OC)c1CN(C)CCc1cn(CCCCCOc2ccc3c(c2)C(=O)N(C2CCC(=O)NC2=O)C3=O)nn1` (centres undefined), the IC50 is under 10 nM.
As to `COc1cc(-c2cn(C)c(=O)c3cnccc23)cc(OC)c1CN1CCN(C(=O)C2CC2CNC(=O)COc2ccc3c(c2)C(=O)N(C2CCC(=O)NC2=O)C3=O)CC1` (centres undefined), the IC50 entry was “in the range around 550 nM”.
Turning to `COc1cc(-c2cn(C)c(=O)c3cnccc23)cc(OC)c1CN(C)C1CC2CN(C(=O)CCOCCOc3ccc4c(c3)C(=O)N(C3CCC(=O)NC3=O)C4=O)CC2C1` (centres undefined), the IC50 entry is “in the range around 55 nM”.
`COc1cc(-c2cn(C)c(=O)c3cnccc23)cc(OC)c1CN1CC2(C1)CN(C(=O)CCCCOc1cccc3c1C(=O)N(C1CCC(=O)NC1=O)C3=O)C2` (centres undefined) yielded an IC50 of under 10 nM.
With `COc1cc(-c2cn(C)c(=O)c3cnccc23)cc(OC)c1CN1CCC(OCc2cn(CCOCc3ccc4c(c3)C(=O)N(C3CCC(=O)NC3=O)C4=O)nn2)CC1` (centres undefined), the concentration for half-maximal inhibition (IC50) entry was “in the range around 55 nM”.
The compound `COc1cc(-c2cn(C)c(=O)c3cnccc23)cc(OC)c1CN(C)C(=O)CCCCN1CCOC2(CCN(c3ccc4c(c3)C(=O)N(C3CCC(=O)NC3=O)C4=O)CC2)C1` (centres undefined) returned an IC50 of under 10 nM.
Turning to `COc1cc(-c2cn(C)c(=O)c3cnccc23)cc(OC)c1CN1CCC(OCc2cn(CCCCCOc3ccc4c(c3)C(=O)N(C3CCC(=O)NC3=O)C4=O)nn2)CC1` (centres undefined), the IC50 is under 10 nM.
For `COc1cc(-c2cn(C)c(=O)c3cnccc23)cc(OC)c1CN1CCC2(CC1)CN(C(=O)CCCOc1cccc3c1C(=O)N(C1CCC(=O)NC1=O)C3=O)CCO2` (centres undefined) the value was under 10 nM.
`COc1cc(-c2cn(C)c(=O)c3cnccc23)cc(OC)c1CN1CCC(OCc2cn(CCOCCOc3ccc4c(c3)C(=O)N(C3CCC(=O)NC3=O)C4=O)nn2)CC1` (centres undefined): the half-maximal inhibitory concentration (IC50) result was “in the range around 55 nM”.
The compound `COc1cc(-c2cn(C)c(=O)c3cnccc23)cc(OC)c1CN1CC2C1CCN2C(=O)CCOCCOc1ccc2c(c1)C(=O)N(C1CCC(=O)NC1=O)C2=O` (centres undefined) registered an IC50 of under 10 nM.
`COc1cc(-c2cn(C)c(=O)c3cnccc23)cc(OC)c1CN(C)CC1CC2(CCN(C(=O)CCOCCOc3cccc4c3C(=O)N(C3CCC(=O)NC3=O)C4=O)CC2)CO1` (centres undefined): the IC50 result was “in the range around 55 nM”.
Take `COc1cc(-c2cn(C)c(=O)c3cnccc23)cc(OC)c1CNCCCN1CC(Oc2ccc3c(c2)C(=O)N(C2CCC(=O)NC2=O)C3=O)C1` (centres undefined): the 50% inhibitory concentration (IC50) entry is “in the range around 55 nM”.
Regarding `COc1cc(-c2cn(C)c(=O)c3cnccc23)cc(OC)c1CN1CCC2(C[C@@H]2NC(=O)CCOCCOc2cccc3c2C(=O)N(C2CCC(=O)NC2=O)C3=O)C1` (some centres undefined), the concentration for half-maximal inhibition (IC50) entry was “in the range around 550 nM”.
The result for `COc1cc(-c2cn(C)c(=O)c3cnccc23)cc(OC)c1CN(C)CC1CC2(C1)CN(C(=O)CCOCCOc1ccc3c(c1)C(=O)N(C1CCC(=O)NC1=O)C3=O)C2` (centres undefined) reads “in the range around 550 nM”.
Turning to `COc1cc(-c2cn(C)c(=O)c3cnccc23)cc(OC)c1CN(C)C1CCC2CN(C(=O)CCOCCOc3cccc4c3C(=O)N(C3CCC(=O)NC3=O)C4=O)CC21` (centres undefined), the IC50 result is “in the range around 55 nM”.
With `COc1cc(-c2cn(C)c(=O)c3cnccc23)cc(OC)c1CN(C)CC1CC2(CCN(C(=O)CCOCCOc3ccc4c(c3)C(=O)N(C3CCC(=O)NC3=O)C4=O)CC2)CO1` (centres undefined), the concentration for half-maximal inhibition (IC50) was under 10 nM.
In the case of `COc1cc(-c2cn(C)c(=O)c3cnccc23)cc(OC)c1CN1CCC2CCN(C(=O)CCOCCOc3cccc4c3C(=O)N(C3CCC(=O)NC3=O)C4=O)CC21` (centres undefined), the IC50 entry is “in the range around 55 nM”.
In turn, `COc1cc(-c2cn(C)c(=O)c3cnccc23)cc(OC)c1CN1CC(S(=O)(=O)NCCCCCCCCNc2cccc3c2C(=O)N(C2CCC(=O)NC2=O)C3=O)C1` (centres undefined) gave an IC50 of under 10 nM.
With `COc1cc(-c2cn(C)c(=O)c3cnccc23)cc(OC)c1CN1CC(C(=O)N(C)CCCCCCCCNc2cccc3c2C(=O)N(C2CCC(=O)NC2=O)C3=O)C1` (centres undefined), the IC50 was under 10 nM.
As for `COc1cc(-c2cn(C)c(=O)c3cnccc23)cc(OC)c1CN1CC(OCc2cn(CCOCCOc3ccc4c(c3)C(=O)N(C3CCC(=O)NC3=O)C4=O)nn2)C1` (centres undefined), the 50% inhibitory concentration (IC50) entry is “in the range around 550 nM”.
Consider `COc1cc(-c2cn(C)c(=O)c3cnccc23)cc(OC)c1CN1CC(OCc2cn(CCOc3ccc4c(c3)C(=O)N(C3CCC(=O)NC3=O)C4=O)nn2)C1` (centres undefined), for which the IC50 result is “in the range around 55 nM”.
For `COc1cc(-c2cn(C)c(=O)c3cnccc23)cc(OC)c1CN1CCC2(C1)CN(C(=O)CCOCCOc1ccc3c(c1)C(=O)N(C1CCC(=O)NC1=O)C3=O)C2` (centres undefined), the IC50 result was “in the range around 55 nM”.
The result for `COc1cc(-c2cn(C)c(=O)c3cnccc23)cc(OC)c1CN1CC(C(=O)NCCCCCCCCNc2cccc3c2C(=O)N(C2CCC(=O)N(C)C2=O)C3=O)C1` (centres undefined) reads over 1000 nM; that for `COc1cc(-c2cn(C)c(=O)c3cnccc23)cc(OC)c1CN(C)C1CC2CC1CN2C(=O)CCOCCOc1ccc2c(c1)C(=O)N(C1CCC(=O)NC1=O)C2=O` (centres undefined), under 10 nM.
As for `COc1cc(-c2cn(C)c(=O)c3cnccc23)cc(OC)c1CN1CCC2(CCN(C(=O)CCOCCOc3ccc4c(c3)C(=O)N(C3CCC(=O)NC3=O)C4=O)C2)C1` (centres undefined), the IC50 entry was “in the range around 55 nM”.
Turning to `COc1cc(-c2cn(C)c(=O)c3cnccc23)cc(OC)c1CN1CC(C(=O)NCCOCCOCCNc2cccc3c2C(=O)N(C2CCC(=O)NC2=O)C3=O)C1` (centres undefined), the IC50 result was “in the range around 55 nM”.
Regarding `COc1cc(-c2cn(C)c(=O)c3cnccc23)cc(OC)c1CN1CCCC(OCc2cn(CCCCOc3ccc4c(c3)C(=O)N(C3CCC(=O)NC3=O)C4=O)nn2)C1` (centres undefined), the IC50 result was “in the range around 55 nM”.
Compound `COc1cc(-c2cn(C)c(=O)c3cnccc23)cc(OC)c1CN1CC(S(=O)(=O)NCCOCCOCCNc2cccc3c2C(=O)N(C2CCC(=O)NC2=O)C3=O)C1` (centres undefined) returned an IC50 of under 10 nM.
The result for `COc1cc(-c2cn(C)c(=O)c3cnccc23)cc(OC)c1CN1CCN(CCCOc2ccc3c(c2)C(=O)N(C2CCC(=O)NC2=O)C3=O)CC1` (centres undefined) reads under 10 nM; that for `COc1cc(-c2cn(C)c(=O)c3cnccc23)cc(OC)c1CN1CCC(C2CCN(C(=O)CCOCCOc3ccc4c(c3)C(=O)N(C3CCC(=O)NC3=O)C4=O)C2)CC1` (centres undefined), under 10 nM.
Regarding `COc1cc(-c2cn(C)c(=O)c3cnccc23)cc(OC)c1CN1CC(CCNC(=O)CCOCCOc2ccc3c(c2)C(=O)N(C2CCC(=O)NC2=O)C3=O)C1` (centres undefined), the IC50 entry is “in the range around 550 nM”.
With `COc1cc(-c2cn(C)c(=O)c3cnccc23)cc(OC)c1CN1CCC2(CCN(C(=O)CCOCCOc3ccc4c(c3)C(=O)N(C3CCC(=O)NC3=O)C4=O)CC2)C1` (centres undefined), the IC50 entry is “in the range around 55 nM”.
Turning to `COc1cc(-c2cn(C)c(=O)c3cnccc23)cc(OC)c1CN(C)NC(=O)CCCCC(=O)NC12CC(Nc3cccc4c3C(=O)N(C3CCC(=O)NC3=O)C4=O)(C1)C2` (centres undefined), the IC50 was under 10 nM.
Consider `COc1cc(-c2cn(C)c(=O)c3cnccc23)cc(OC)c1CN1CCC(OCc2cn(CCOc3ccc4c(c3)C(=O)N(C3CCC(=O)NC3=O)C4=O)nn2)C1` (centres undefined), for which the IC50 result was “in the range around 55 nM”.
Consider `COc1cc(-c2cn(C)c(=O)c3cnccc23)cc(OC)c1CN1CC(OCc2cn(-c3ccc4c(c3)C(=O)N(C3CCC(=O)NC3=O)C4=O)nn2)C1` (centres undefined), for which the IC50 result is “in the range around 55 nM”.
Take `COc1cc(-c2cn(C)c(=O)c3cnccc23)cc(OC)c1CN1CC[C@H]1CN(C)Cc1cccc2c1C(=O)N(C1CCC(=O)NC1=O)C2=O` (some centres undefined): the IC50 entry is “in the range around 55 nM”.
Regarding `COc1cc(-c2cn(C)c(=O)c3cnccc23)cc(OC)c1CN1CCC2(CC1)CC(NC(=O)CCOCCOc1ccc3c(c1)C(=O)N(C1CCC(=O)NC1=O)C3=O)C2` (centres undefined), the IC50 result is “in the range around 55 nM”.
On to `COc1cc(-c2cn(C)c(=O)c3cnccc23)cc(OC)c1CN(C)CC1CC2(CCN(C(=O)CCOCCOc3cccc4c3C(=O)N(C3CCC(=O)NC3=O)C4=O)CC2)C1` (centres undefined), for which the IC50 result was “in the range around 55 nM”.
`COc1cc(-c2cn(C)c(=O)c3cnccc23)cc(OC)c1CN(C)Cc1cn(CCOc2ccc3c(c2)C(=O)N(C2CCC(=O)NC2=O)C3=O)nn1` (centres undefined): the IC50 result was “in the range around 550 nM”.
On to `COc1cc(-c2cn(C)c(=O)c3cnccc23)cc(OC)c1CN(C)CCc1cn(-c2ccc3c(c2)C(=O)N(C2CCC(=O)NC2=O)C3=O)nn1` (centres undefined), for which the IC50 entry is “in the range around 55 nM”.
The result for `COc1cc(-c2cn(C)c(=O)c3cnccc23)cc(OC)c1CN1CCC(OCc2cn(CCOCCOc3ccc4c(c3)C(=O)N(C3CCC(=O)NC3=O)C4=O)nn2)C1` (centres undefined) reads “in the range around 55 nM”.
In turn, `COc1cc(-c2cn(C)c(=O)c3cnccc23)cc(OC)c1CN1CCC(OC2CCN(C(=O)CCOCCOc3ccc4c(c3)C(=O)N(C3CCC(=O)NC3=O)C4=O)C2)CC1` (centres undefined) returned an IC50 of under 10 nM.
As to `COc1cc(-c2cn(C)c(=O)c3cnccc23)cc(OC)c1CN1CCN(C(=O)C2CC2CNC(=O)COc2cccc3c2C(=O)N(C2CCC(=O)NC2=O)C3=O)CC1` (centres undefined), the 50% inhibitory concentration (IC50) entry was “in the range around 550 nM”.
